Assay results reported in ChEMBL document CHEMBL1148213, “Diterpenoids from Isodon melissoides” (J Nat Prod, 2004).
In brackets after ≈: the same amount, converted by molar mass.

System: BGC-823
Assay: Cytotoxicity against human BGC823 cells
Assay type: functional, cell-based

SMILES | Activity | IC50
C=C1[C@@H]2C[C@H](O)[C@@H]3[C@](C2)(C[C@H](OC(C)=O)[C@@H]2C(C)(C)[C@@H](OC(C)=O)C[C@H](O)[C@]23C)[C@@H]1O | Not toxic | –
C=C1[C@@H]2C[C@H](O)[C@@H]3[C@](C2)(C[C@H](OC(C)=O)[C@@H]2C(C)(C)[C@@H](OC(C)=O)C[C@H](OC(C)=O)[C@]23C)[C@@H]1O | Not toxic | –
C=C1[C@@H]2C[C@H](O)[C@H]3[C@]4(C)CC[C@H](O)C(C)(C)[C@H]4[C@@H](OC(C)=O)C[C@]3(C2)[C@@H]1O | Not toxic | –
C=C1[C@@H]2C[C@H](O)[C@H]3[C@]4(C)CC[C@H](O)C(C)(C)[C@H]4[C@@H](OC(C)=O)[C@H](O)[C@]3(C2)[C@@H]1O | Not toxic | –
C=C1[C@@H]2C[C@H](O)[C@H]3[C@]4(C)CC[C@H](O)C(C)(C)[C@H]4[C@@H](OC(C)=O)[C@H](OC(C)=O)[C@]3(C2)[C@@H]1O | Not toxic | –
C=C1[C@@H]2C[C@H](O)[C@H]3[C@]4(C)CC[C@H](OC(C)=O)C(C)(C)[C@H]4[C@@H](OC(C)=O)C[C@]3(C2)[C@@H]1O | Not toxic | –
C=C1[C@@H]2C[C@H](O)[C@H]3[C@]4(C)CC[C@H](OC(C)=O)C(C)(C)[C@H]4[C@@H](OC(C)=O)[C@H](OC(C)=O)[C@]3(C2)[C@@H]1O | Not toxic | –
C=C1C(=O)[C@]23C[C@H]1C[C@H](O)[C@H]2[C@]1(C)CC[C@H](OC(C)=O)C(C)(C)[C@H]1[C@@H](OC(C)=O)[C@@H]3OC(C)=O [DAWOENSIN A] | – | 3.54 µg/mL (≈ 7.43 µM)
C=C1C(=O)[C@]23C[C@H]1C[C@H](O)[C@H]2[C@]1(C)CC[C@H](OC(C)=O)C(C)(C)[C@H]1[C@@H](OC(C)=O)[C@@H]3O [MELISSOIDESIN G] | – | 6.62 µg/mL (≈ 15.2 µM)
C=C1C(=O)[C@]23C[C@H]1C[C@H](O)[C@H]2[C@]1(C)CC[C@H](O)C(C)(C)[C@H]1[C@@H](OC(C)=O)C3 [MELISSOIDESIN N] | – | 0.036 µg/mL (≈ 0.0956 µM)
C=C1C(=O)[C@]23C[C@H]1C[C@H](O)[C@H]2[C@]1(C)CC[C@H](OC(C)=O)C(C)(C)[C@H]1[C@@H](OC(C)=O)C3 [MELISSOIDESIN O] | – | 7.83 µg/mL (≈ 18.7 µM)
C=C1C(=O)[C@]23C[C@H]1C[C@H](O)[C@H]2[C@@]1(C)[C@H]([C@@H](OC(C)=O)C3)C(C)(C)[C@@H](OC(C)=O)C[C@@H]1O [MELISSOIDESIN S] | – | 7.71 µg/mL (≈ 17.7 µM)
CC[C@]1(O)C[C@H]2CN(CCc3c([nH]c4ccccc34)[C@@](C(=O)OC)(c3cc4c(cc3OC)N(C=O)[C@H]3[C@@](O)(C(=O)OC)[C@H](OC(C)=O)[C@]5(CC)C=CCN6CC[C@]43[C@@H]65)C2)C1 [VINCRISTINE] | – | 0.066 µg/mL (≈ 0.08 µM)
C=C1C(=O)[C@]23C[C@H]1C[C@H](O)[C@H]2[C@]1(C)CC[C@H](O)C(C)(C)[C@H]1[C@@H](OC(C)=O)[C@@H]3O [XINDONGNIN B] | – | 9.45 µg/mL (≈ 24.1 µM)
